Assay results reported in patent US20180251847A1, “METHOD OF PREDICTING THE TUMOR RESPONSE TO DNA METHYLATION INHIBITORS AND ALTERNATIVE THERAPEUTIC REGIMEN FOR OVERCOMING RESISTANCE” (PALACKY UNIVERSITY, OLOMOUC, priority 2014, published 2018).
Like-named read-outs stand apart in the source and are kept apart here.

Legend:
R1.4 (HCT116-RDAC) = assay: MTT based cell survival assay, DAC resistant HCT116 clone R1.4; parameters: species or system human
Protocol: (§1) The DAC resistant HCT116 cell lines were developed using two methods.
(§2) The method is primarily based on reduction of yellow colored tetrazolium salt, 3-(4,5-dimethylthiazol-2-yl)-2,5-diphenyltetrazolium bromide (MTT) to insoluble purple colored formazan crystals by NAD(P)H-dependent oxidoreductase enzymes in mitochondria of the viable cell.
(§3) Cells in 80 μL of medium were plated in each of the experimental and the control wells, followed by addition of 20 μL medium with five-fold drug concentration to experimental wells. The wells with medium alone were included alongside as blank for absorbance readings. After 72 h of drug treatment, 10 μL MTT (Sigma-Aldrich) prepared in 1×PBS (5 mg/mL) was added to all wells including blank and control, and incubated until the purple formazan crystals were visible after which 100 μL of detergent (10% SDS, pH: 5.5) was added and the plates were incubated overnight to solubilize the formazan and the cellular material.
(§4) Cross resistance was determined as the fold increase, whereas, the sensitivity was determined as the fold decrease in the IC50 of the drugs for the resistant cell lines compared to their genetically identical drug sensitive counterpart.

HCT116 = assay: MTT based cell survival assay, parental HCT116; parameters: species or system human; details: Homo sapiens
Protocol: (§5) To study the mechanism of resistance towards DNA methylation inhibitor, 2′-deoxy-5-azacytidine, we used the human colorectal cancer cell line (HCT116), human promyelocytic leukemia cells (HL-60), and human breast adenocarcinoma cell line (MCF-7) obtained from American Type Culture Collection (Manassas, Va.). The cell lines were cultured in complete growth media (Sigma-Aldrich, St. Louis, Mo.), supplemented with fetal bovine serum (FBS, PAN-Biotech GmbH, Aidenbach, Germany), 100 U/mL penicillin (Biotika, Slovenská L'upča, Slovak Republic) and 50 μg/mL streptomycin (Sigma-Aldrich), and the cultures were maintained at 37° C. and 5% CO2, in a humidified incubator. The cell line, HCT116 was grown in McCoy's 5 A medium supplemented with 10% FBS and 3 mM L-glutamine (Sigma-Aldrich), HL-60 was grown in Iscove's Modified Dulbecco's Medium with 20% FBS, and MCF-7 was grown in RPMI-1640 medium with 10% FBS.
as §2, with “cell. The intensity of the purple color produced on solubilization of the formazan crystals is directly proportional to the number of viable cells (Meerloo J. V. et al., Methods in Molecular Biology 2011; 731, 237-45).” for “cell.”
as §3, with “To determine the IC50 of the epigenetic drugs (Tocris Bioscience, Bristol, United Kingdom), four independent experiments were performed using triplicate wells of 96 well plates. Cells” for “Cells”, “[…],” for “After 72 h of drug treatment,”
as §4

R1.3 (HCT116-RDAC) = assay: MTT based cell survival assay, DAC resistant HCT116 clone R1.3; parameters: species or system human
Protocol: as §1, §2, §3, §4

HL-60_RDAC = assay: MTT based cell survival assay, DAC resistant HL-60; parameters: species or system human
Protocol: (§6) For cross validation of data obtained from comparative studies of HCT116 parental and resistant cells, we further developed DAC resistant MCF-7 and HL-60 cell lines. […] However, DAC resistant HL-60 cells were obtained as a gift from the author (Qin T. et al., Blood 2009; 113, 659-67) and was further selected in our laboratory by treatment with 5 μM DAC.
(§7) MTT based cell survival assay was performed in either case, whether to determine the cross-resistance of the DAC resistant cell lines towards inhibitors of DNA methyltransferases, histone acetyltransferases, histone methyltransferases, histone deacetylases, and histone demethylases, or to determine their sensitivity towards selective BET bromodomain inhibitors. […]
(§8) To determine the IC50 of the epigenetic drugs (Tocris Bioscience, Bristol, United Kingdom), four independent experiments were performed using triplicate wells of 96 well plates. […] The wells with medium alone were included alongside as blank for absorbance readings. […]
as §4

MCF-7 = assay: MTT based cell survival assay, parental MCF-7; details: Homo sapiens, MCF7, read-out: Mean IC50
Protocol: as §5, with “The cell line, HCT116 was grown in McCoy's 5 A medium supplemented with 10% FBS and 3 mM L-glutamine (Sigma-Aldrich), HL-60 was grown in Iscove's Modified Dulbecco's Medium with 20% FBS, and MCF-7 was grown in RPMI-1640 medium with 10% FBS.” left out
as §8, §4

HL-60 = assay: MTT based cell survival assay, parental HL-60; details: Homo sapiens, HL-60, read-out: Mean IC50
Protocol: as §5, with “The cell line, HCT116 was grown in McCoy's 5 A medium supplemented with 10% FBS and 3 mM L-glutamine (Sigma-Aldrich), HL-60 was grown in Iscove's Modified Dulbecco's Medium with 20% FBS, and MCF-7 was grown in RPMI-1640 medium with 10% FBS.” left out
as §8, §4

MCF-7_RDAC = assay: MTT based cell survival assay, DAC resistant MCF-7; parameters: species or system human
Protocol: as §6, §7, §8, §4

R1.2 (HCT116-RDAC) = assay: MTT based cell survival assay, DAC resistant HCT116 clone R1.2; parameters: species or system human
Protocol: as §1, §2, §3, §4

R1.1 (HCT116-RDAC) = assay: MTT based cell survival assay, DAC resistant HCT116 clone R1.1; parameters: species or system human
Protocol: as §1, §2, §3, §4

DAC resistant cell lines = assay: MTT based cell survival assay, DAC resistant cell lines as a group; details: Homo sapiens, all of the resistant cell lines, read-out: resistance to DAC (IC50)
Protocol: The DAC resistant HCT116 cell lines were developed using two methods. […] After long term exposure of the cells to cytotoxic dose of the drug, the bulk population was determined to be resistant.
as §6
Resistance to DAC was confirmed by the MTT-based cell survival assay and resistance index was calculated as the fold increase in the IC50 of the resistant cell lines compared with the untreated control. All of the resistant cell lines were >100 μM resistant to DAC. […]
as §8, §4

[1] = Homo sapiens, HCT-116, 72 h, read-out: Mean IC50

For `Nc1ncn([C@H]2C[C@H](O)[C@@H](CO)O2)c(=O)n1` [DAC, 2′-deoxy-5-azacytidine], the IC50 (R1.4 (HCT116-RDAC); [1]) was > 100000 nM, the “fold change (resistance index)” value (R1.4 (HCT116-RDAC); IC50 R1.4 / IC50 HCT116) was “(>357) fold” and the IC50 (HCT116; HCT-116, 72 h, read-out: Mean IC50) was 280 nM. The IC50 (HCT116; HCT-116, 120 h, read-out: IC50 concentration of the drug) was 280 nM, the IC50 (R1.3 (HCT116-RDAC); [1]) was > 100000 nM and the “fold change (resistance index)” value (R1.3 (HCT116-RDAC); IC50 R1.3 / IC50 HCT116) was “(>357) fold”. The IC50 (HL-60_RDAC; Homo sapiens, HL-60, read-out: Mean IC50) was > 100000 nM, the “fold change (resistance)” value (HL-60_RDAC; IC50 HL-60_RDAC / IC50 HL-60) was > 1289 fold and the IC50 (MCF-7) was 238 nM. The IC50 (HL-60) was 78 nM, the IC50 (MCF-7_RDAC; Homo sapiens, MCF7, read-out: Mean IC50) was > 100000 nM and the “fold change (resistance)” value (MCF-7_RDAC; IC50 MCF-7_RDAC / IC50 MCF-7) was > 421 fold. For the same compound, the IC50 (R1.2 (HCT116-RDAC); [1]) was > 100000 nM, the “fold change (resistance index)” value (R1.2 (HCT116-RDAC); IC50 R1.2 / IC50 HCT116) was “(>357) fold” and the IC50 (R1.1 (HCT116-RDAC); [1]) was > 100000 nM. The “fold change (resistance index)” value (R1.1 (HCT116-RDAC); IC50 R1.1 / IC50 HCT116) was “(>357) fold” and the IC50 (DAC resistant cell lines) was > 100000 nM.
